Tests used:
ragweed [1] = assay: Test C postemergence; format: in vivo, Ambrosia elatior
From the text: (§1) Seeds of plant species selected from blackgrass (Alopecurus myosuroides), Italian ryegrass (Lolium multiflorum), wheat, winter (winter wheat, Triticum aestivum), galium (catchweed bedstraw, Galium aparine), corn (Zea mays), large (Lg) crabgrass (Digitaria sanguinalis), giant foxtail (Setaria faberii), johnsongrass (Sorghum halepense), lambsquarters (Chenopodium album), morningglory (Ipomoea coccinea), yellow nutsedge (Cyperus esculentus), pigweed (Amaranthus retroflexus), ragweed (common ragweed, Ambrosia elatior), soybean (Glycine max), barnyardgrass (Echinochloa crus-galli), oilseed rape (Brassica napus), waterhemp (common waterhemp, Amaranthus rudis), kochia (Kochia scoparia), wild oat (Avena fatua), surinam grass (Brachiaria decumbens), foxtail, green (green foxtail, Setaria viridis), goosegrass (Eleusine indica), bromegrass, downy (downy bromegrass, Bromus tectorum), nightshade (eastern black nightshade, Solanum ptycanthum), cocklebur (common cocklebur, Xanthium strumarium), cupgrass, woolly (woolly cupgrass, Eriochloa villosa), bermudagrass (Cynodon dactylon), sunflower, (common oilseed sunflower, Helianthus annuus), Russian thistle (Salsola kali), and velvetleaf (Abutilon theophrasti) were planted into a blend of loam soil and sand and treated preemergence with test chemicals formulated in a non-phytotoxic solvent mixture which included a surfactant.
(§2) At the same time, plants selected from these crop and weed species and also barley, winter (winter barley, Hordeum vulgare), windgrass (Apera spica-venti), chickweed (common chickweed, Stellaria media), deadnettle (henbit deadnettle, Lamium amplexicaule), and canarygrass (littleseed canarygrass, Phalaris minor) were planted in pots containing Redi-Earth® planting medium (Scotts Company, 14111 Scottslawn Road, Marysville, Ohio 43041) comprising spaghnum peat moss, vermiculite, wetting agent and starter nutrients and treated with postemergence applications of test chemicals formulated in the same manner. Plants ranged in height from 2 to 18 cm (1- to 4-leaf stage) for postemergence treatments. Treated plants and controls were maintained in a greenhouse for 13 to 15 days, after which time all species were compared to controls and visually evaluated. Plant response ratings, summarized in Table C, are based on a scale of 0 to 100 where 0 is no effect and 100 is complete control. A dash (-) response means no test result.

pigweed [2] = assay: Test A preemergence; format: in vivo, Amaranthus retroflexus
Summary of the method: (§3)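 Pre- and postemergence greenhouse screen. Soil: loam + sand. Spray carrier: solvent mixture, non-phytotoxic, with surfactant. Post timing at 1–2 leaves, height 2–10 cm. Readout: visual injury on a 0–100 scale roughly 10 days after application, untreated plants as reference.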

velvetleaf [3] = assay: Test C postemergence; format: in vivo, Abutilon theophrasti
From the text: as §1, §2

velvetleaf [4] = assay: Test A preemergence; format: in vivo, Abutilon theophrasti
Summary of the method: as §3

large (Lg) crabgrass = assay: Test A preemergence; format: in vivo, Digitaria sanguinalis
Summary of the method: as §3

corn = assay: Test A postemergence; format: in vivo, Zea mays
Summary of the method: as §3

morningglory = assay: Test A preemergence; format: in vivo, Ipomoea spp.
Summary of the method: as §3

galium = assay: Test C postemergence; format: in vivo, Galium aparine; conditions: Galium, post-emergence
From the text: as §1, §2

pigweed [5] = assay: Test C postemergence; format: in vivo, Amaranthus retroflexus
From the text: as §1, §2

wheat = assay: Test A postemergence; format: in vivo, Triticum aestivum
Summary of the method: as §3

ragweed [6] = assay: Test C preemergence; format: in vivo, Ambrosia elatior; conditions: for Ragweed plant response rating: preemergence, scale 0 (no effect) to 100 (complete control)
Summary of the method: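 Rated visually on 0–100 (100 = complete control) after 13–15 days under glass. Treatments went onto freshly seeded loam/sand soil or onto emerged plants at the 1- to 4-leaf stage, using a surfactant-containing solvent formulation.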

giant foxtail = assay: Test C preemergence; format: in vivo, Setaria faberii; conditions: for Foxtail, Giant plant response rating: preemergence, scale 0 (no effect) to 100 (complete control)
From the text: as §1, §2

soybean = assay: Test C preemergence; format: in vivo, Glycine max; conditions: for Soybean plant response rating: preemergence, scale 0 (no effect) to 100 (complete control)
From the text: as §1, §2

johnsongrass = assay: Test C preemergence; format: in vivo, Sorghum halepense; conditions: for Johnsongrass plant response rating: preemergence, scale 0 (no effect) to 100 (complete control)
From the text: as §1, §2

[7] = Postemergence, 31 g ai/ha, scale 0 to 100 (0 no effect, 100 complete control), 13 to 15 days
[8] = Postemergence, 62 g ai/ha, scale 0 to 100 (0 no effect, 100 complete control)
[9] = 125 g ai/ha, 0 to 100 scale where 0 is no effect and 100 is complete control
[10] = 500 g ai/ha, 0 to 100 scale, 0 no effect, 100 complete control, approx. 10 days
[11] = Preemergence, 31 g ai/ha, scale 0 to 100, 0 no effect, 100 complete control
[12] = 500 g ai/ha, 0 to 100 scale, 0 no effect, 100 complete control

Compound: Fc1cnc(Oc2ccccc2-n2cc(Br)cn2)nc1 [Compound 10, 2-[2-(4-bromo-1H-pyrazol-1-yl)phenoxy]-5-fluoropyrimidine]
- pest or weed control at 125 g/ha (ragweed [1]; Ambrosia artemisiifolia, post-emergence, 125 g ai/ha, postemergence, read-out: Plant response rating (0 to 100), Ragweed): 55%
- pest or weed control at 250 g/ha (ragweed [1]; Ambrosia artemisiifolia, post-emergence, 250 g ai/ha, postemergence, read-out: Plant response rating (0 to 100), Ragweed): 80%
- pest or weed control at 31 g/ha (ragweed [1]; Ambrosia artemisiifolia, post-emergence, Postemergence, 31 g ai/ha, scale 0 to 100 (0 no effect, 100 complete control), 13 to 15 days, read-out: Plant response rating, Ragweed): 50%
- pest or weed control at 62 g/ha (ragweed [1]; Ambrosia artemisiifolia, post-emergence, Postemergence, 62 g ai/ha, scale 0 to 100 (0 no effect, 100 complete control), read-out: Plant response rating, Ragweed): 50%
- pest or weed control at 125 g/ha (pigweed [2]; Amaranthus retroflexus, pre-emergence, 240 h, 125 g ai/ha, 0 to 100 scale where 0 is no effect and 100 is complete control, read-out: Pigweed plant response rating): 100%
- pest or weed control at 500 g/ha (pigweed [2]; Amaranthus retroflexus, pre-emergence, 240 h, 500 g ai/ha, 0 to 100 scale, 0 no effect, 100 complete control, approx. 10 days, read-out: Pigweed plant response rating): 100%
- pest or weed control at 125 g/ha (velvetleaf [3]; Abutilon theophrasti, post-emergence, 125 g ai/ha, postemergence, read-out: Plant response rating (0 to 100), Velvetleaf): 70%
- pest or weed control at 250 g/ha (velvetleaf [3]; Abutilon theophrasti, post-emergence, 250 g ai/ha, postemergence, read-out: Plant response rating (0 to 100), Velvetleaf): 90%
- pest or weed control at 31 g/ha (velvetleaf [3]; Abutilon theophrasti, post-emergence, Postemergence, 31 g ai/ha, scale 0 to 100 (0 no effect, 100 complete control), 13 to 15 days, read-out: Plant response rating, Velvetleaf): 50%
- pest or weed control at 62 g/ha (velvetleaf [3]; Abutilon theophrasti, post-emergence, Postemergence, 62 g ai/ha, scale 0 to 100 (0 no effect, 100 complete control), read-out: Plant response rating, Velvetleaf): 70%
- pest or weed control at 125 g/ha (velvetleaf [4]; Abutilon theophrasti, pre-emergence, 240 h, 125 g ai/ha, 0 to 100 scale where 0 is no effect and 100 is complete control, read-out: Velvetleaf plant response rating): 100%
- pest or weed control at 500 g/ha (velvetleaf [4]; Abutilon theophrasti, pre-emergence, 240 h, 500 g ai/ha, 0 to 100 scale, 0 no effect, 100 complete control, approx. 10 days, read-out: Velvetleaf plant response rating): 100%
- pest or weed control at 125 g/ha (large (Lg) crabgrass; Digitaria sanguinalis, pre-emergence, 240 h, 125 g ai/ha, 0 to 100 scale where 0 is no effect and 100 is complete control, read-out: Crabgrass, Large plant response rating): 100%
- pest or weed control at 500 g/ha (large (Lg) crabgrass; Digitaria sanguinalis, pre-emergence, 240 h, 500 g ai/ha, 0 to 100 scale, 0 no effect, 100 complete control, approx. 10 days, read-out: Crabgrass, Large plant response rating): 100%
- Corn plant response rating (crop injury, 0 = no effect, 100 = complete kill) at 125 g/ha (corn; Zea mays, post-emergence, 240 h, 125 g ai/ha, 0 to 100 scale where 0 is no effect and 100 is complete control): 20%
- plant injury at 500 g/ha (corn; Zea mays, post-emergence, 240 h, 500 g ai/ha, 0 to 100 scale, 0 no effect, 100 complete control, read-out: Plant response rating Corn): 50%
- pest or weed control at 125 g/ha (morningglory; Ipomoea, pre-emergence, 240 h, 125 g ai/ha, 0 to 100 scale where 0 is no effect and 100 is complete control, read-out: Morningglory plant response rating): 40%
- pest or weed control at 500 g/ha (morningglory; Ipomoea, pre-emergence, 240 h, 500 g ai/ha, 0 to 100 scale, 0 no effect, 100 complete control, approx. 10 days, read-out: Morningglory plant response rating): 60%
- pest or weed control at 125 g/ha (galium; 125 g ai/ha, postemergence, read-out: Plant response rating (0 to 100), Galium): 80%
- pest or weed control at 250 g/ha (galium; 250 g ai/ha, postemergence, read-out: Plant response rating (0 to 100), Galium): 95%
- pest or weed control at 31 g/ha (galium; Postemergence, 31 g ai/ha, scale 0 to 100 (0 no effect, 100 complete control), 13 to 15 days, read-out: Plant response rating, Galium): 65%
- pest or weed control at 62 g/ha (galium; Postemergence, 62 g ai/ha, scale 0 to 100 (0 no effect, 100 complete control), read-out: Plant response rating, Galium): 80%
- pest or weed control at 125 g/ha (pigweed [5]; Amaranthus retroflexus, post-emergence, 125 g ai/ha, postemergence, read-out: Plant response rating (0 to 100), Pigweed): 100%
- pest or weed control at 250 g/ha (pigweed [5]; Amaranthus retroflexus, post-emergence, 250 g ai/ha, postemergence, read-out: Plant response rating (0 to 100), Pigweed): 100%
- pest or weed control at 31 g/ha (pigweed [5]; Amaranthus retroflexus, post-emergence, Postemergence, 31 g ai/ha, scale 0 to 100 (0 no effect, 100 complete control), 13 to 15 days, read-out: Plant response rating, Pigweed): 75%
- pest or weed control at 62 g/ha (pigweed [5]; Amaranthus retroflexus, post-emergence, Postemergence, 62 g ai/ha, scale 0 to 100 (0 no effect, 100 complete control), read-out: Plant response rating, Pigweed): 98%
- plant injury at 125 g/ha (wheat; Triticum aestivum, post-emergence, 240 h, 125 g ai/ha, 0 to 100 scale where 0 is no effect and 100 is complete control, read-out: Plant response rating, Wheat): 0%
- plant injury at 500 g/ha (wheat; Triticum aestivum, post-emergence, 240 h, 500 g ai/ha, 0 to 100 scale, 0 no effect, 100 complete control, read-out: Plant response rating Wheat): 60%

Compound: FC(F)(F)c1cnn(-c2ccccc2Oc2ncc(Cl)cn2)c1 [Compound 16]
- Plant response rating (0 to 100), Ragweed (ragweed [1]; 125 g ai/ha, postemergence): 40
- Plant response rating (0 to 100), Ragweed (ragweed [1]; 250 g ai/ha, postemergence): 90
- Plant response rating, Ragweed (ragweed [1]; [7]): 15
- Plant response rating, Ragweed (ragweed [1]; [8]): 30
- Pigweed plant response rating (pigweed [2]; [9]): 100
- Pigweed plant response rating (pigweed [2]; [10]): 100
- Plant response rating (0 to 100), Velvetleaf (velvetleaf [3]; 125 g ai/ha, postemergence): 75
- Plant response rating (0 to 100), Velvetleaf (velvetleaf [3]; 250 g ai/ha, postemergence): 75
- Plant response rating, Velvetleaf (velvetleaf [3]; [7]): 60
- Ragweed plant response rating (ragweed [6]; 62 g ai/ha): 25
- Ragweed plant response rating (ragweed [6]; 125 g ai/ha): 55
- Ragweed plant response rating (ragweed [6]; 250 g ai/ha): 60
- Plant response rating, Ragweed (ragweed [6]; [11]): 0
- Velvetleaf plant response rating (velvetleaf [4]; [9]): 100
- Velvetleaf plant response rating (velvetleaf [4]; [10]): 100
- Foxtail, Giant plant response rating (giant foxtail; 62 g ai/ha): 98
- Foxtail, Giant plant response rating (giant foxtail; 125 g ai/ha): 100
- Foxtail, Giant plant response rating (giant foxtail; 250 g ai/ha): 100
- Plant response rating, Foxtail, Giant (giant foxtail; [11]): 95
- Crabgrass, Large plant response rating (large (Lg) crabgrass; [9]): 100
- Crabgrass, Large plant response rating (large (Lg) crabgrass; [10]): 100
- Plant response rating, Corn (corn; [9]): 70
- Plant response rating, Corn (corn; [12]): 80
- Morningglory plant response rating (morningglory; [9]): 30
- Morningglory plant response rating (morningglory; [10]): 90
- Soybean plant response rating (soybean; 62 g ai/ha): 90
- Soybean plant response rating (soybean; 125 g ai/ha): 90
- Soybean plant response rating (soybean; 250 g ai/ha): 90
- Plant response rating, Soybean (soybean; [11]): 75
- Johnsongrass plant response rating (johnsongrass; 62 g ai/ha): 85
- Johnsongrass plant response rating (johnsongrass; 125 g ai/ha): 100
- Johnsongrass plant response rating (johnsongrass; 250 g ai/ha): 100
- Plant response rating, Johnsongrass (johnsongrass; [11]): 0
- Plant response rating (0 to 100), Pigweed (pigweed [5]; 125 g ai/ha, postemergence): 100
- Plant response rating (0 to 100), Pigweed (pigweed [5]; 250 g ai/ha, postemergence): 100
- Plant response rating, Pigweed (pigweed [5]; [7]): 80
- Plant response rating, Pigweed (pigweed [5]; [8]): 98
- Plant response rating, Wheat (wheat; [9]): 70
- Plant response rating, Wheat (wheat; [12]): 80
